Literature values as cited in patent publication US12029798B2, “Pre-targeting strategies for molecular imaging and/or radioimmunotherapy” (UNIVERSITY OF PITTSBURGH—OF THE COMMONWEALTH SYSTEM OF …, priority 2016, dated 2024).

Details: reaction with azides

For oxa-dibenzocyclooctynes [ODIBO], the cycloaddition rate is listed as 43 M^−1S^−1.
